Reference: PubChem BioAssay AID1963434 (Molecular Pharmacology Branch, DTP, NCI, 2024)

System: 755483-174-R-J1-PDC complex spheroid growth, percent test/control
Assay: Anticancer human tumor 755483-174-R-J1-PDC patient-derived rhabdomyosarcoma cell line growth inhibition [Asc]
Conditions: for IC50: curve of first compound; for viability, T/C: stronger effect = lower value
Outline: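 Complex spheroids combining tumor cells with HUVEC endothelial cells and human MSCs, at 37 degrees C, 5% CO2; agents tested alone or combined, half-log dilutions from at or near clinical Cmax, or 10 microM if Cmax unknown.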

[1] = second compound 0.03 µM, first compound 0.0316 µM
[2] = second compound 0.03 µM, first compound 0.1 µM
[3] = second compound 0.03 µM, first compound 0.316 µM
[4] = second compound 0.03 µM, first compound 1 µM
[5] = second compound 0.03 µM, first compound 3.16 µM
[6] = second compound 0.03 µM, first compound 10 µM
[7] = second compound 0.0949 µM, first compound 0.0316 µM
[8] = second compound 0.0949 µM, first compound 0.1 µM
[9] = second compound 0.0949 µM, first compound 0.316 µM
[10] = second compound 0.0949 µM, first compound 1 µM
[11] = second compound 0.0949 µM, first compound 3.16 µM
[12] = second compound 0.0949 µM, first compound 10 µM
[13] = second compound 0.3 µM, first compound 0.0316 µM
[14] = second compound 0.3 µM, first compound 0.1 µM
[15] = second compound 0.3 µM, first compound 0.316 µM
[16] = second compound 0.3 µM, first compound 1 µM
[17] = second compound 0.3 µM, first compound 3.16 µM
[18] = second compound 0.3 µM, first compound 10 µM
[19] = second compound 0.949 µM, first compound 0.0316 µM
[20] = second compound 0.949 µM, first compound 0.1 µM
[21] = second compound 0.949 µM, first compound 0.316 µM
[22] = second compound 0.949 µM, first compound 1 µM
[23] = second compound 0.949 µM, first compound 3.16 µM
[24] = second compound 0.949 µM, first compound 10 µM
[25] = second compound 3 µM, first compound 0.0316 µM
[26] = second compound 3 µM, first compound 0.1 µM
[27] = second compound 3 µM, first compound 0.316 µM
[28] = second compound 3 µM, first compound 1 µM
[29] = second compound 3 µM, first compound 3.16 µM
[30] = second compound 3 µM, first compound 10 µM
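Also: spheroids exposed to compounds for seven days before readout.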

Row | Compound | IC50 (second compound 0.03 µM) [nM] | IC50 (second compound 0.0949 µM) [nM] | IC50 (second compound 0.3 µM) [nM] | IC50 (second compound 0.949 µM) [nM] | IC50 (second compound 3 µM) [nM] | viability, T/C [1] [%] | viability, T/C [2] [%] | viability, T/C [3] [%] | viability, T/C [4] [%] | viability, T/C [7] [%] | viability, T/C [8] [%] | viability, T/C [9] [%] | viability, T/C [10] [%] | viability, T/C [13] [%] | viability, T/C [14] [%] | viability, T/C [15] [%] | viability, T/C [16] [%] | viability, T/C [19] [%] | viability, T/C [20] [%] | viability, T/C [21] [%] | other results
1 | C#Cc1c(F)ccc2cc(O)cc(-c3ncc4c(N5CC6CCC(C5)N6)nc(OCC56CCCN5CC(F)C6)nc4c3F)c12 (stereo not given) + CCN1C(C(=O)NC23CCC(C(=O)O)(CC2)CC3)C(c2cccc(Cl)c2F)C2(C(=O)Nc3cc(Cl)ccc32)C12CCCCC2 | 8790 | 9370 | 6910 | 8900 | 7200 | 90.5 | 96.1 | 95.5 | 120 | 135 | 110 | 128 | 121 | 79.4 | 88.4 | 143 | 89.1 | 78.9 | 79.5 | 117 | viability, T/C [5]: 71.8%; viability, T/C [6]: 47.2%; viability, T/C [11]: 59.8%; viability, T/C [12]: 49.4%; viability, T/C [17]: 91.7%; viability, T/C [18]: 30.5%; viability, T/C [22]: 118%; viability, T/C [23]: 88.2%; viability, T/C [24]: 45.7%; viability, T/C [25]: 111%; viability, T/C [26]: 106%; viability, T/C [27]: 116%; viability, T/C [28]: 114%; viability, T/C [29]: 80.6%; viability, T/C [30]: 37.8%
2 | C=C(F)C(=O)N1CCN(c2nc(OCC3CCCN3C)nc3c2CCN(c2cccc4cccc(Cl)c24)C3)CC1CC#N (stereo not given) + CCN1C(C(=O)NC23CCC(C(=O)O)(CC2)CC3)C(c2cccc(Cl)c2F)C2(C(=O)Nc3cc(Cl)ccc32)C12CCCCC2 | 2170 | 1660 | 1430 | 1890 | 1600 | 81 | 120 | 91.5 | 89.4 | 91.9 | 93.2 | 83.1 | 66.6 | 82.9 | 106 | 87 | 56.6 | 88.4 | 97.3 | 89.2 | viability, T/C [5]: 30.9%; viability, T/C [6]: 0.12%; viability, T/C [11]: 29.6%; viability, T/C [12]: 0.13%; viability, T/C [17]: 28.5%; viability, T/C [18]: 0.51%; viability, T/C [22]: 69.3%; viability, T/C [23]: 33.8%; viability, T/C [24]: 0.31%; viability, T/C [25]: 79.5%; viability, T/C [26]: 81.7%; viability, T/C [27]: 86.4%; viability, T/C [28]: 65.7%; viability, T/C [29]: 25.3%; viability, T/C [30]: 0.24%
3 | C=CC(=O)N1CCN(c2nc(=O)n(-c3c(C)ccnc3C(C)C)c3nc(-c4c(O)cccc4F)c(F)cc23)C(C)C1 (stereo not given) + CCN1C(C(=O)NC23CCC(C(=O)O)(CC2)CC3)C(c2cccc(Cl)c2F)C2(C(=O)Nc3cc(Cl)ccc32)C12CCCCC2 | > 10000 | > 10000 | > 10000 | > 10000 | > 10000 | 92.4 | 83.7 | 99.7 | 88.7 | 88.6 | 103 | 82.4 | 97.8 | 80.8 | 80.6 | 85.3 | 103 | 89.1 | 82.7 | 115 | viability, T/C [5]: 99.1%; viability, T/C [6]: 65.7%; viability, T/C [11]: 98.4%; viability, T/C [12]: 78%; viability, T/C [17]: 125%; viability, T/C [18]: 88.8%; viability, T/C [22]: 100%; viability, T/C [23]: 107%; viability, T/C [24]: 83.2%; viability, T/C [25]: 84.4%; viability, T/C [26]: 107%; viability, T/C [27]: 94.5%; viability, T/C [28]: 81.2%; viability, T/C [29]: 76.7%; viability, T/C [30]: 63.4%
4 | CNC(C)C(=O)NC1CN(S(=O)(=O)c2cccc(S(=O)(=O)N3CCC4CCC(C(=O)NC(c5ccccc5)c5ccccc5)N4C(=O)C(NC(=O)C(C)NC)C3)c2)CCC2CCC(C(=O)NC(c3ccccc3)c3ccccc3)N2C1=O (stereo not given) + CCN1C(C(=O)NC23CCC(C(=O)O)(CC2)CC3)C(c2cccc(Cl)c2F)C2(C(=O)Nc3cc(Cl)ccc32)C12CCCCC2 | 68.5 | 42.9 | 76.7 | 9.97 | 12.5 | 51.9 | 52 | 39.7 | 36.2 | 51.1 | 40.9 | 43.9 | 32.5 | 56.1 | 39.1 | 46 | 59.5 | 52.6 | 56.2 | 42 | viability, T/C (second compound 0.03 µM, first compound 0.00316 µM): 80.3%; viability, T/C (second compound 0.03 µM, first compound 0.01 µM): 65.6%; viability, T/C (second compound 0.0949 µM, first compound 0.00316 µM): 74.6%; viability, T/C (second compound 0.0949 µM, first compound 0.01 µM): 64.6%; viability, T/C (second compound 0.3 µM, first compound 0.00316 µM): 76.7%; viability, T/C (second compound 0.3 µM, first compound 0.01 µM): 80.9%; viability, T/C (second compound 0.949 µM, first compound 0.00316 µM): 92.7%; viability, T/C (second compound 0.949 µM, first compound 0.01 µM): 48.8%; viability, T/C [22]: 34.6%; viability, T/C (second compound 3 µM, first compound 0.00316 µM): 51.5%; viability, T/C (second compound 3 µM, first compound 0.01 µM): 54%; viability, T/C [25]: 38.8%; viability, T/C [26]: 36.8%; viability, T/C [27]: 23.5%; viability, T/C [28]: 54.1%
